Data taken from PMC6264499, “In silico identification and experimental validation of hits active against KPC-2 β-lactamase” (PLoS ONE, 2018).
pIC50, pKi: −log10 of the molar value.

How the values were obtained:
recombinant KPC-2 [1] = molecular target: T1, recombinant KPC-2 (Klebsiella pneumoniae, UniProt Q9F663); experiment: KPC-2 inhibition assay, CENTA as reporter substrate; type: biochemical
T1 construct: made in house; host or cells: E. coli BL21 (DE3)
Protocol: (§1) The blaKPC-2 gene was kindly provided by Prof. Sergei Vakulenko (University of Notre Dame du Lac, Indiana, USA) and cloned as already reported and transformed into competent E.coli BL21 (DE3) cells for protein expression. 50 mL of Tryptic Soy Broth (TSB) (50 mg/L kanamycin) were inoculated with fresh colonies and grown at 37°C. 4 mL of the overnight culture was used to inoculate 1.3 L of TSB (50 mg/L kanamycin) grown at 37°C with shaking to an optical density of 0.5 measured at 600 nm. Then expression of recombinant bla gene was induced by adding 1.0 mM IPTG (isopropyl-D-thiogalactopyranoside) and the cells were again allowed to grow at 20°C overnight. Bacteria were harvested by centrifugation at 4000 rpm for 20 minutes. The pelleted cells were resuspended in Tris-HCl 50 mM pH 7.4–7.5. Periplasmatic proteins were extracted as reported in the pET System Manual (TB055 10th Edition Rev. B 0403) and subsequently dialyzed in sodium acetate buffer (50 mM, pH 5.0). The protein was conveniently purified in a single step using a Macro-Prep High S resin and eluted using sodium acetate 50 mM pH 5.0 and a sodium chloride (NaCl) linear gradient from 100 to 500 mM. The purified protein was dialyzed overnight in sodium phosphate buffer 50 mM, pH 7.0 [31, 32].
(§2) The hydrolytic activity of KPC-2 was measured using the β-lactam substrates CENTA (100 uM, KM 70 uM) or nitrocefin (114 uM, KM 36 μM) in reaction buffer consisting of 50 mM of PB at pH 7.0 at 25°C with 0.01% v/v Triton X-100 to avoid compound aggregation and promiscuous inhibition.[33] Reactions were monitored using a Beckmann DU640 spectrophotometer at […] for CENTA and 480 nm wavelength for nitrocefin [34]. The test compounds were synthesized as described below or purchased from Enamine, TimTec, Vitas-M, ChemBridge, Otava, Life Chemicals or Apollo Scientific and assayed without further purification. Compounds were dissolved in dimethyl sulfoxide (DMSO) to a concentration of 25 mM and stored at -20°C. The highest concentration at which the compounds were tested was up to 1 mM (depending on their solubility). All experiments were performed in duplicate and the error never exceeded 5%. The reaction was typically initiated by adding KPC-2 to the reaction buffer last. To control for incubation effects, protein was added to the reaction buffer first, and the reaction was initiated by the addition of reporter substrate after 10 minutes of enzyme-compound incubation.
Fig 4 Inhibitory activity of compounds selected from virtual screening. ^[a]Assays were performed in duplicate (errors were less than 5%) with CENTA as reporter substrate (100 μM, km 70 μM). Kinetic were monitored at 25° by following the absorbance variation at λ = 405 nm. ^[b] If no IC50 has been measured, percent inhibition at the highest tested concentration is given in parentheses. For example, > 0.50 (26%) implies that the highest concentration tested was 0.50 mM; at this concentration, the enzyme was inhibited by 26%. Therefore, IC50> 0.50 mM. When % Inhibition was below 10% No Inibition (NI) is reported. ^[c]Assays were run after 10’ incubation of the inhibitor with KPC-2. Reaction was started by the addition of CENTA. […] 0 (11) | 32a: IC50 mM ^[a,b]: 1.24
Competitive inhibition mechanism and the Ki for compound 9a was determined by Lineweaver–Burk (LB) and Dixon plots.

recombinant KPC-2 [2] = molecular target: T1, recombinant KPC-2; experiment: KPC-2 inhibition assay, nitrocefin as reporter substrate; type: biochemical; settings: for pIC50: nitrocefin 114.28 μM (Km 36 μM), 25°, 485 nm
Protocol: as §1, §2
Kinetic were monitored at 25° by following the absorbance variation at λ = 485 nm. ^[b] If no IC50 has been measured, percent inhibition at the highest tested concentration is given in parentheses. […] When % Inhibition was below 10% No Inhibition (NI) is reported. TEXT PRINTED IN THE PICTURE: 11a: IC50 mM [a,b]: 0.036 | 1b: IC50 mM [a,b]: > 0.2 (25) | 2b: IC50 mM [a,b]: >0.6 (23) | 3b: IC50 mM [a,b]: Not tested not soluble | 4b: IC50 mM [a,b]: > 0.2 (16) | 5b: IC50 mM [a,b]: > 0.2 (13) | 6b: IC50 mM [a,b]: NI at 0.2 | 7b: IC50 mM [a,b]: >1.0 (30) | 8b: IC50 mM [a,b]: > 1.0 (37) | 9b: IC50 mM [a,b]: NI at 0.5 | 10b: IC50 mM [a,b]: NI at 0.5 | 11b: IC50 mM [a,b]: > 1.0 (37) | 12b: IC50 mM [a,b]: NI at 0.5 | 13b: IC50 mM [a,b]: NI at 0.5 | 14b: IC50 mM [a,b]: >500 (20) DOUBTS OF THE COPYIST ABOUT THIS PICTURE: column head: raised note printed very small, read as [a,b]

Kpn 53A8 = experiment: MIC of meropenem, alone or 1:1 with compounds, KPC-2 clinical strain; type: cell-based, K. pneumoniae; settings: strain Kpn 53A8
Protocol: The antimicrobial activity of the best hits 9a and 11a and their derivatives was studied in bacterial cell cultures to investigate their ability to cross the outer membrane reaching the periplasmic space, where KPC-2 is secreted and confined in Gram negative bacteria. Compounds were tested for synergy with the β-lactam antibiotic meropenem against four K. pneumoniae clinical strains, isolated from different patients at the Hospital Universitario Son Espases, Palma de Mallorca, Spain. […] The three additional strains harbored the blaKPC-2 gene and were resistant to meropenem (Table 2). […] However, against strain Kpn 53A8 the MIC value was lowered by a factor of two when meropenem was combined with compounds 32a, 1b, 2b, 5b and 6b while in combination with compound 11a the MIC value was reduced by 4 fold.

[3] = CENTA 100 μM (km 70 μM), 25°, 405 nm, no pre-incubation, read-out: IC50
[4] = read-out: percent inhibition at the highest tested concentration
[5] = CENTA 100 μM, after 10' incubation of the inhibitor with KPC-2, read-out: IC50

T1 sequence (Q9F663 25-293, looked up): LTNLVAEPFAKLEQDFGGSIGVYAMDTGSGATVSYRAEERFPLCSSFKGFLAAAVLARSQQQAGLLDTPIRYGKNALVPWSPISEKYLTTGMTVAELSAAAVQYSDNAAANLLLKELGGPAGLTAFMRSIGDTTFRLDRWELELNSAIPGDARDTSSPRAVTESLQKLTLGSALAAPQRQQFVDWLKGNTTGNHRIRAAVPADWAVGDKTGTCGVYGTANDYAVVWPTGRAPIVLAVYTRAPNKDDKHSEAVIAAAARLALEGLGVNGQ

Compound: Cc1nn(CC(=O)O)c(C)c1NS(=O)(=O)CC(F)(F)F [29a]
- pIC50 (recombinant KPC-2 [1]; [3]): < 3.00
- inhibition at 1000 µM (recombinant KPC-2 [1]; [4]): 15%

Compound: CS(=O)(=O)Nc1ccc2oc(=O)sc2c1 [31a]
- pIC50 (recombinant KPC-2 [1]; [3]): < 3.00
- inhibition at 1000 µM (recombinant KPC-2 [1]; [4]): 11%

Compound: O=C(O)Cc1c[nH]c2ncnn2c1=O [30a]
- inhibition at 1000 µM (recombinant KPC-2 [1]; [4]): < 10%

Compound: COc1ccc(NS(C)(=O)=O)cc1 [5a]
- pIC50 (recombinant KPC-2 [1]; [3]): < 3.30
- inhibition at 500 µM (recombinant KPC-2 [1]; [4]): 13%

Compound: Cc1c(Br)cc(S(=O)(=O)Nc2cccc(-c3nnn[nH]3)c2)cc1[N+](=O)[O-] [9b]
- inhibition at 500 µM (recombinant KPC-2 [2]; [4]): < 10%

Compound: Cn1nccc1-c1cc(C(=O)O)n[nH]1 [27a]
- inhibition at 500 µM (recombinant KPC-2 [1]; [4]): < 10%

Compound: Cc1c(-c2cc(C(=O)O)no2)cnn1C [3a]
- pIC50 (recombinant KPC-2 [1]; [3]): < 3.60
- inhibition at 250 µM (recombinant KPC-2 [1]; [4]): 13%

Compound: Brc1cc2c(cc1-c1nnn[nH]1)OCO2 [12a]
- pIC50 (recombinant KPC-2 [1]; [5]): 3.15

Compound: Cc1nc2cc(S(=O)(=O)Nc3cccc(-c4nnn[nH]4)c3)ccc2n1-c1ccccc1 [11b]
- pIC50 (recombinant KPC-2 [2]): < 3.00
- inhibition at 1000 µM (recombinant KPC-2 [2]; [4]): 37%

Compound: O=[N+]([O-])c1cccc(S(=O)(=O)Nc2cccc(-c3nnn[nH]3)c2)c1 [2b, N-(3-(1H-tetrazol-5-yl)phenyl)-3-nitrobenzenesulfonamide]
- fold reduction of meropenem MIC in combination with compound (Kpn 53A8): two
- pIC50 (recombinant KPC-2 [2]): < 3.22
- inhibition at 600 µM (recombinant KPC-2 [2]; [4]): 23%

Compound: COc1ccc2nc(N)sc2c1 [32a]
- fold reduction of meropenem MIC in combination with compound (Kpn 53A8): two
- fold less active than 9a (recombinant KPC-2 [1]; IC50 vs KPC-2 relative to compound 9a): 8 fold

Compound: O=c1ccc(O)nn1-c1nnn[nH]1 [17a]
- pIC50 (recombinant KPC-2 [1]; [3]): < 3.00
- inhibition at 1000 µM (recombinant KPC-2 [1]; [4]): 23%

Compound: CN(Cc1cnccn1)Cc1cccc(C(=O)O)n1 [23a]
- pIC50 (recombinant KPC-2 [1]; [5]): < 3.00
- inhibition at 1000 µM (recombinant KPC-2 [1]; [4]): 26%

Compound: Cc1nn(CC(=O)O)c2nccc(-c3cnn(C)c3)c12 [26a]
- pIC50 (recombinant KPC-2 [1]; [3]): < 3.08
- inhibition at 830 µM (recombinant KPC-2 [1]; [4]): 18%

Compound: Cn1c(=O)c2n[nH]c(=O)nc2n(C)c1=O [14a]
- pIC50 (recombinant KPC-2 [1]): < 3.00
- inhibition at 1000 µM (recombinant KPC-2 [1]; [4]): 26%

Compound: Cc1cc(C(=O)O)cc(S(=O)(=O)Nc2cccc(-c3nnn[nH]3)c2)c1C [8b]
- pIC50 (recombinant KPC-2 [2]): < 3.00
- inhibition at 1000 µM (recombinant KPC-2 [2]; [4]): 37%

Compound: O=S(=O)(Nc1cccc(-c2nnn[nH]2)c1)c1ccc(C(F)(F)F)cc1 [14b]
- pIC50 (recombinant KPC-2 [2]): < 3.30

Compound: O=C(Nc1cccc(-c2nnn[nH]2)c1)c1cccc(F)c1 [11a, N-(3-(1H-tetrazol-5-yl)phenyl)-3-fluorobenzamide]
- fold reduction of meropenem MIC in combination with compound (Kpn 53A8): 4 fold
- pIC50 (recombinant KPC-2 [1]; [5]): 4.44
- pKi (recombinant KPC-2 [1]; Cheng-Prusoff equation from IC50, assuming competitive inhibition, read-out: Ki (calculated)): 4.83
- ligand efficiency (LE) (recombinant KPC-2 [1]; vs KPC-2): 0.28 kcal/mol/non-hydrogen atom
- mode of inhibition (recombinant KPC-2 [1]; vs KPC-2): competitive inhibitors

Compound: Cn1cc(-c2cc(C(=O)O)no2)cn1 [4a]
- pIC50 (recombinant KPC-2 [1]; [3]): < 3.60
- inhibition at 250 µM (recombinant KPC-2 [1]; [4]): 12%

Compound: O=C(NCc1nnnn1-c1ccccc1)c1cccnc1O [25a]
- pIC50 (recombinant KPC-2 [1]; [3]): < 3.40
- inhibition at 400 µM (recombinant KPC-2 [1]; [4]): 26%

Compound: CS(=O)(=O)Nc1ccc(C(N)=O)cc1 [6a]
- pIC50 (recombinant KPC-2 [1]; [3]): < 3.00
- inhibition at 1000 µM (recombinant KPC-2 [1]; [4]): 18%

Compound: O=S(=O)(Nc1cccc(-c2nnn[nH]2)c1)c1ccc(S(=O)(=O)N2CCCC2)cc1 [10b]
- inhibition at 500 µM (recombinant KPC-2 [2]; [4]): < 10%
